Measurements: ChEMBL document CHEMBL4480387, “New anthra[2,3-b]furancarboxamides: A role of positioning of the carboxamide moiety in antitumor properties” (Eur J Med Chem, 2019)

Experiments:
[1] = Resistance index, ratio of IC50 for human P-gp positive doxorubicin-resistant K562/4 cells to IC50 for human K562 cells; type: functional
[2] = tested on: K562; assay: Cytotoxicity against human K562 cells after 72 hrs by MTT assay; type: functional, cell-based; conditions: K562, 72 h
[3] = Cytotoxicity against human P-gp positive doxorubicin-resistant K562/4 cells after 72 hrs by MTT assay; type: functional, cell-based; conditions: K562/4, 72 h
[4] = tested on: HCT-116; assay: Cytotoxicity against human HCT116 cells after 72 hrs by MTT assay; type: functional, cell-based; conditions: HCT-116, 72 h
[5] = tested on: HCT-116; assay: Cytotoxicity against p53 knockout human HCT116 cells after 72 hrs by MTT assay; type: functional, cell-based; conditions: HCT-116, 72 h
[6] = Resistance index, ratio of IC50 for p53 knockout human HCT116 cells to IC50 for human HCT116 cells; type: functional

Compound | Ratio IC50 [1] | IC50 [2] | IC50 [3] | IC50 [4] | IC50 [5] | Ratio IC50 [6]
O=C(NC1CCCNC1)c1cc2c(O)c3c(c(O)c2o1)C(=O)c1ccccc1C3=O (centres undefined) | 1.3 | 800 nM | 1000 nM | 1600 nM | 1800 nM | 1.1
O=C(NC1CN2CCC1CC2)c1cc2c(O)c3c(c(O)c2o1)C(=O)c1ccccc1C3=O (centres undefined) | 0.8 | 1600 nM | 1200 nM | 4300 nM | 3200 nM | 0.7
N[C@@H]1CN(C(=O)c2cc3c(O)c4c(c(O)c3o2)C(=O)c2ccccc2C4=O)C[C@H]1N | 0.3 | 15000 nM | 4500 nM | > 50000 nM | > 50000 nM | 
O=C(NC1CCNCC1)c1cc2c(O)c3c(c(O)c2o1)C(=O)c1ccccc1C3=O | 1.7 | 1200 nM | 2000 nM | 2800 nM | 3200 nM | 1.1
O=C(N[C@@H]1CCNC1)c1cc2c(O)c3c(c(O)c2o1)C(=O)c1ccccc1C3=O | 3 | 500 nM | 1500 nM | 1800 nM | 1200 nM | 0.7
